In brackets after ≈: the same amount, converted by molar mass.
What was measured:
[1] = molecular target: T1, 5 lipoxygenase (Homo sapiens, UniProt P09917); test: inhibition of 5 lipoxygenase in human blood (A23187-induced iLTB4 formation, RIA); format: cell-based; conditions: heparinized human blood, A23187 15 μg/ml, 30 minutes at 37° C., iLTB4 by RIA; read-out: IC50-value, concentration causing an inhibition of 50% of 5 lipoxygenase
T1 construct: endogenous in cells; host or cells: freshly drawn, heparinized human whole blood (blood leukocytes; the cell type is own knowledge)
T1 sequence (P09917 1-674): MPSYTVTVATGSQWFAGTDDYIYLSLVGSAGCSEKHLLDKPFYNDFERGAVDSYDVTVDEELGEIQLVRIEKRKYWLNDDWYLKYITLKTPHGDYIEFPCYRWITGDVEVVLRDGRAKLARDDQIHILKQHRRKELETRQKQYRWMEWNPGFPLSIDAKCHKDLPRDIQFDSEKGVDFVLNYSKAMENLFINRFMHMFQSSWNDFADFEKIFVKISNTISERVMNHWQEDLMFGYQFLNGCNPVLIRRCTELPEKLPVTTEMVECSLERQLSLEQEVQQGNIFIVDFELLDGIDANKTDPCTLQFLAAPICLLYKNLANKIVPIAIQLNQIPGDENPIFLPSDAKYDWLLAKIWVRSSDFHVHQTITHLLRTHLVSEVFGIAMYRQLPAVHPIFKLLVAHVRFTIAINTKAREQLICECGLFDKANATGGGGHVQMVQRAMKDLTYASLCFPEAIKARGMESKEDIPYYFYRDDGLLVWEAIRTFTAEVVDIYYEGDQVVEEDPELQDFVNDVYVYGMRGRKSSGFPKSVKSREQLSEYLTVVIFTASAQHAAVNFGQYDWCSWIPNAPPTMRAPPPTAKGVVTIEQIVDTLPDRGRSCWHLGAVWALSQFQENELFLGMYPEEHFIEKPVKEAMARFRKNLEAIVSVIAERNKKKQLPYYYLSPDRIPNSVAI
Description: To determine the inhibition of 5 lipoxygenase, aliquots of freshly drawn, heparinized human blood were incubated at 37° C. in a water bath with addition of either N Hydroxy-N-(thien-3-yl)methyl-acetamide in different concentrations or a solvent. After 5 minutes the calcium ionophore A23187 was added to an end concentration of 15 μg/ml blood, and the incubation was continued for 30 minutes at 37° C. Then the samples were centrifuged to collect the cell free plasma. The content of the immunoreactive leucotriene B4 (iLTB4), in each sample was determined by radioimmunoassay "RIA" (^3 H-LTB4 -RIA, Amersham) with reference to a LTB4 standard curve and was calculated as ng iLTB4 /ml plasma. The percentage inhibition caused by the acetohydroxamic acid compound of formula I at various concentrations was calculated in comparison to the aliquots incubated with solvent only. N-hydroxy-N-(thien-3-yl)methyl-acetamide has an IC50 -value, i.e. the concentration causing an inhibition of 50% of 5 lipoxygenase, of 0.3 μmolar.

[2] = test system: cell-free 5 lipoxygenase; test: 5 lipoxygenase activity polarographically measured in 10,000×g supernatant of homogenized rat basophilic leukemia cells; release from complex; format: biochemical; conditions: RBL 10,000×g supernatant, arachidonic acid 75 μM, 5 minutes at 35° C.; complex of Example 3 versus free compound
Description: To determine the rate and the extent of the release of N hydroxy-[…])methyl-acetamide from the complex prepared according to Example 3, the 5 lipoxygenase activity of cell-free 5 lipoxygenase was polarographically measured with oxygen electrodes in 10,000×g supernatant from homogenized rat basophilic leukemia cells (RBL i cells). After incubation of the 10,000×g supernatant with arachidonic acid (75 μM), adenosine triphosphate (4 mM), glutathione (4 mM), and either N hydroxy-[…])methyl-acetamide or a solvent for 5 minutes at 35° C., the lipoxygenase reaction was initiated by addition of calcium chloride and plotted simultaneously. The evaluation included the duration of the lag-phase as well as the initial rate of the reaction after the lag-phase. […] A significant amount of the acetohydroxamic acid compound is fully available in the biological test system even when the compound is originally administered in the form of a complex.

[3] = molecular target: T2, cyclooxygenase (Ovis aries, UniProt P05979); test: activity of cyclooxygenase in sheep seminal vesicle microsomes ([14C]-arachidonic acid, TLC); format: biochemical; conditions: potassium phosphate buffer pH 7.0
T2 sequence (P05979 25-600): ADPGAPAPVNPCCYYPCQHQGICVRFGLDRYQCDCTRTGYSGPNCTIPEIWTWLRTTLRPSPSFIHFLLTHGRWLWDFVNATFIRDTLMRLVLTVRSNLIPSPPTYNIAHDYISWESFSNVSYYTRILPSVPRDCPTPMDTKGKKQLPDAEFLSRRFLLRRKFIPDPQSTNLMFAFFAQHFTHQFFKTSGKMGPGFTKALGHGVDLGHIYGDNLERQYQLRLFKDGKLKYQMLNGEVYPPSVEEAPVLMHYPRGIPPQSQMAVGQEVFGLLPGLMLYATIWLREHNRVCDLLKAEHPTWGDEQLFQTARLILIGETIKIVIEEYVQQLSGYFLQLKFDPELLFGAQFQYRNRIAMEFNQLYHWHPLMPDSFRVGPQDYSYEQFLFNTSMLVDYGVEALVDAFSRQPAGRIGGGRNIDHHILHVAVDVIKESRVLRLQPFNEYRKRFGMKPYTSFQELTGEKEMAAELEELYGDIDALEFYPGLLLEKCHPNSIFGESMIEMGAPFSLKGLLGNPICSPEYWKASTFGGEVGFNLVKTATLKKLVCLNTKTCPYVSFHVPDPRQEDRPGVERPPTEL
Description: The effect of the acetohydroxamic acid compound of formula I on the activity of cyclooxygenase was tested using a suspension of sheep seminal vesicle microsomes in […] of potassium phosphate buffer of pH 7.0 which was incubated either with N-hydroxy-N-(thien-3-yl)methyl-acetamide or with a solvent only and [^14 C]-arachidonic acid. The IC50 values, i.e. the concentrations causing an inhibition of 50% of cyclooxygenase were determined by thin layer chromatography using a TLC-linear-analyzer.

[4] = test system: 5-lipoxygenase; test: ex vivo iLTB4-formation in whole blood of rats after oral administration (bioavailability); design: species or system rat (Wistar strain, male)
Description: The bioavailability of the compound of formula I was characterized by means of an ex vivo biochemical assessment method described by Tateson et al. in Brit. J. Pharmacol. 528 (1988): N-Hydroxy-N-(thien-3-yl)methyl-acetamide was orally administered in a dose of 21.5 mg/kg to male rats (Wistar strain). One hour later blood was taken from the rats in lethal CO2 -narcosis. Aliquots of the blood were incubated for 30 minutes at 37° C. in a water bath with addition of calcium ionophore A 23 187 to an end concentration of 15 μg/ml. At the end of the incubation the samples were centrifuged to collect the cell free plasma. The concentration of the immunoreactive LTB4 (iLTB4 ng/ml) in each plasma sample was determined by radioimmunoassay (^3 H-LTB4 -RIA, Amersham) by means of a LTB4 -standard curve in diluted rat plasma. To determine the percent inhibition of ex vivo iLTB4 -formation in whole blood of rats treated with the compound of formula I, rats orally treated with an appropriate vehicle solution were included in all experiments, aliquots of their blood were run in parallel and were processed in the same manner as described. The mean iLTB4 formation per ml plasma of these vehicle treated rats served as the 100% value of normal 5-lipoxygenase activity. The percent inhibition of the ex vivo iLTB4 -formation after oral administration of the compound of formula I was calculated according to the following formula: […]
where Q represents the mean iLTB4 content in ng […] per ml plasma of the rats treated with the compound of formula I and C represents the mean iLTB4 content in ng iLTB4 per ml plasma of rats treated only with the vehicle.

[5] = test system: guinea pigs; test: antiasthmatic effect: ovalbumin-induced bronchoconstriction in anesthetized, ventilated, passively sensitized guinea pigs (Konzett-Roessler); format: in vivo, guinea pig
Description: The antiasthmatic effect of the compound according to the invention was tested in anesthetized and ventilated guinea pigs. In order to induce an asthmatic reaction, the animals were passively sensitized with a single intraperitoneal injection of antiovalbumin serum. After 48 hours the asthmatic reaction was elicited by intravenous challenge with 0.2 mg/kg of ovalbumin. The immediately resulting bronchoconstriction was measured as an increase in overflow according to the Konzett-Roessler method for a period of 10 minutes (Naunyn Schiedeberg's Arch. Exp. Path. Pharma. Vol. 195, 71-74 (1940)). Effects caused by histamine, serotonin and sympathic counterreaction were eliminated by intravenous pretreatment with 2.15 mg/kg of mepyramine, […] of propranolol, 4.64 mg/kg of atropine and 1 mg/kg of methysergide, all given 5 minutes before challenge. N-Hydroxy-N-(thien-3-yl)methyl-acetamide was orally administered 60 minutes before, intravenously administered 30 minutes before, and locally administered 2 minutes before the administration of ovalbumin.

[6] = test system: isolated tracheal strips of guinea pigs; test: anti-anaphylactic effect: ovalbumin-induced anaphylactic constrictions of isolated tracheal strips; format: cell-based, guinea pig; conditions: Cavia porcellus; tracheal strips of actively sensitized guinea pigs, with mepyramine and indomethacin, 37° C.; Example 3 based on the complexed N-hydroxy-N-(thien-3-yl)methyl-acetamide content; read-out: IC50-value, inhibition of 50% of the anaphylactic constrictions
Description: The anti-anaphylactic effect of N-hydroxy-[…])methyl-acetamide was tested using an in vitro model. […] The organs were connected to isometric force transducers. After incubation with mepyramine (elimination of histamine) and indomethacin (inhibition of cyclooxygenase resulting in an increase of the anaphylactic reaction) ovalbumin was added to the organ bath in cumulatively increasing concentrations. The resulting anaphylactic constrictions were inhibited by N-hydroxy-[…])methyl-acetamide which was added to the organ bath before the anaphylactic constrictions were elicited.

[7] = solubility; format: physicochemical
[8] = toxicity; conditions: observed only at far higher doses than therapeutic or prophylactic doses

In the case of CC(=O)N(O)Cc1ccsc1 [Example 1, N-hydroxy-N-(thien-3-yl)methyl-acetamide], the IC50 [1] is reported as 0.3 µM, the “inhibition of the 5 lipoxygenase reaction” value [2] is reported as “comparable effects” and the “prolongation of the lag-phase of the 5 lipoxygenase reaction” value [2] is reported as “comparable effects”. For the same compound, the “IC50-values for the inhibition of cyclooxygenase compared with IC50-values for 5-lipoxygenase” value [3] was “significantly higher than the IC50 -values for the inhibition of 5-lipoxygenase”, the “percent inhibition of the ex vivo iLTB4-formation” value ([4]; 21.5 mg/kg oral, male Wistar rats, blood taken one hour later, A23187 15 μg/ml) was 95% and the oral availability ([4]; oral, 21.5 mg/kg, rats, concluded from ex vivo iLTB4 inhibition) was “excellent oral availability”. The “calculated dose with a semi-maximum inhibiting effect after oral administration” value ([4]; oral, rats, ex vivo iLTB4-formation, 60 min) was 5.6 mg/kg, the inhibition of bronchoconstriction ([5]; 21.5 mg/kg oral, 60 minutes before ovalbumin) was 42% and the “resorption of the acetohydroxamic acid compound” value ([5]; oral 21.5 mg/kg (free) versus intravenous 21.5 mg/kg (complex), guinea pigs) was “high resorption”. For the same compound, the IC50 [6] was 10.2 µM, the solubility ([7]; organic solvent or mixture, water/ethanol 4:1 mixture) was 3000 µg/mL (≈ 17.5 mM) and the solubility ([7]; phosphate buffer/ethanol 4:1, organic solvent or mixture, phosphate buffer (pH 7.4)/ethanol, 4:1 mixture) was 3000 µg/mL (≈ 17.5 mM). For the same compound, the degree of toxicity [8] was “low degree of toxicity”.

From US5252562A, “Acetohydroxamic compound and complexes pharmaceutical compositions containing them and processes of preparation and use” (Gruenenthal GmbH, priority 1991, dated 1993)
